Assay results reported in the NIST ThermoML archive (doi:10.1016/j.jct.2008.07.009).

Test: xn = mol fraction of the nth substance listed
Settings: 101 kPa, Liquid, Vibrating tube method

CC(=O)N1CCOCC1 [4-acetylmorpholine] + CCc1ccccc1
mass density [kg/m3]
Settings	293.15 K	303.15 K	313.15 K	323.15 K	333.15 K	343.15 K
x2 = 0.0456	1102.4	1094.5	1085.9	1077.3	1068.9	1060.3
x2 = 0.1256	1082.6	1074.7	1066.2	1057.7	1049.2	1040.6
x2 = 0.1853	1068	1060	1051.5	1042.9	1034.3	1025.7
x2 = 0.2457	1053.2	1045.2	1036.6	1027.9	1019.4	1010.6
x2 = 0.2984	1040.5	1032.4	1023.7	1015	1006.3	997.5
x2 = 0.3486	1028.3	1020.1	1011.4	1002.6	993.8	985
x2 = 0.3899	1018.3	1010	1001.2	992.4	983.6	974.7
x2 = 0.4452	1004.8	996.5	987.7	978.9	969.9	960.9
x2 = 0.4843	995.3	986.9	978	969.2	960.2	951.2
x2 = 0.5433	980.8	972.3	963.5	954.6	945.6	936.6
x2 = 0.5894	969.5	961	952.1	943.2	934.2	925.2
x2 = 0.6555	953.2	944.7	935.8	926.9	917.8	908.8
x2 = 0.6983	942.6	934	925.1	916.2	907.2	898.3
x2 = 0.7452	931	922.4	913.5	904.6	895.6	886.6
x2 = 0.7984	917.7	909	900.2	891.2	882.3	873.4
x2 = 0.8422	906.7	898	889.3	880.4	871.4	862.4
x2 = 0.9328	884.2	875.5	866.7	857.8	848.7	839.7
x2 = 0.9784	872.8	864.1	855.2	846.2	837.1	828

CC(=O)N1CCOCC1 [4-acetylmorpholine] + c1ccccc1
mass density [kg/m3]
Settings	293.15 K	303.15 K	313.15 K	323.15 K	333.15 K	343.15 K
x2 = 0.0546	1104.6	1096.7	1088.2	1079.6	1071	1062.4
x2 = 0.1127	1094.9	1086.8	1078.1	1069.3	1060.6	1051.8
x2 = 0.1568	1087.2	1079	1070.2	1061.2	1052.4	1043.5
x2 = 0.2099	1078	1069.6	1060.6	1051.3	1042.3	1033.2
x2 = 0.2673	1067.5	1058.9	1049.8	1040.5	1031.4	1022.1
x2 = 0.3128	1059	1050.2	1040.9	1031.6	1022.2	1012.9
x2 = 0.3564	1050.6	1041.7	1032.3	1022.8	1013.4	1003.9
x2 = 0.4056	1040.8	1031.7	1022.2	1012.5	1002.9	993.3
x2 = 0.4562	1030.1	1020.8	1011.2	1001.4	991.7	981.8
x2 = 0.5039	1019.5	1010.1	1000.3	990.4	980.6	970.6
x2 = 0.5683	1004.5	994.9	984.9	974.9	964.9	954.8
x2 = 0.6138	993.3	983.5	973.5	963.4	953.2	942.6
x2 = 0.6866	974.4	964.5	954.3	943.9	933.6	923.3
x2 = 0.7437	958.7	948.6	938.3	927.7	917.6	907.1
x2 = 0.8033	941.3	931.1	920.7	910.2	899.7	889.2
x2 = 0.8659	922.4	912.1	901.6	891	880.5	869.8
x2 = 0.9154	906.8	896.3	885.8	875.2	864.6	853.8
x2 = 0.9687	889.4	878.9	868.4	857.7	847	836.3

CC(=O)N1CCOCC1 [4-acetylmorpholine] + Cc1ccccc1
mass density [kg/m3]
Settings	293.15 K	303.15 K	313.15 K	323.15 K	333.15 K	343.15 K
x2 = 0.0498	1104.1	1096.4	1087.8	1079.4	1071.2	1063.2
x2 = 0.0975	1094.3	1086.5	1077.8	1069.6	1061.4	1053.3
x2 = 0.1453	1084	1076.5	1068.2	1059.9	1051.6	1043.4
x2 = 0.2109	1070.1	1062.5	1054	1045.6	1036.8	1029.2
x2 = 0.2873	1053.3	1045.4	1037.1	1028.6	1020.2	1012
x2 = 0.3276	1044.3	1036.5	1028.1	1019.5	1011	1002.5
x2 = 0.3865	1030.8	1022.8	1014.6	1005.8	997.2	988.6
x2 = 0.4536	1015.1	1007	998.7	989.8	981.2	972.2
x2 = 0.4953	1005.1	996.9	988.7	979.7	970.8	962.1
x2 = 0.5235	998.4	990	981.7	972.7	964.1	954.5
x2 = 0.5641	988.2	979.8	971.6	962.5	953.8	944.9
x2 = 0.6033	978.3	969.9	961.7	952.5	943.8	935
x2 = 0.6844	957.3	949	940.7	931.5	922.7	913.9
x2 = 0.7562	937.8	929.6	921.3	912.1	903.2	894.7
x2 = 0.8126	922.2	913.7	905.5	896.2	887.4	879.3
x2 = 0.8843	901.8	893.2	885	875.6	866.8	857.9
x2 = 0.9225	890.5	881.8	873.5	864.1	855.3	846.4
x2 = 0.9832	872.3	863.3	855.2	845.9	837.1	828.2

CC(=O)N1CCOCC1 [4-acetylmorpholine] + Cc1cc(C)cc(C)c1
mass density [kg/m3]
Settings	293.15 K	303.15 K	313.15 K	323.15 K	333.15 K	343.15 K
x2 = 0.0654	1094.6	1086.8	1077.7	1069.3	1060.8	1052.2
x2 = 0.1128	1081.2	1073.4	1063.8	1055.4	1046.9	1038.5
x2 = 0.1763	1063.5	1055.7	1045.7	1037.3	1028.9	1020.4
x2 = 0.2254	1050.2	1042.3	1032	1023.5	1015.1	1006.7
x2 = 0.2845	1034.5	1026.5	1015.8	1007.4	999	990.6
x2 = 0.3241	1024.2	1016.2	1005.2	996.8	988.4	980
x2 = 0.3837	1008.9	1000.9	989.5	981	972.7	964.3
x2 = 0.4266	998.1	990.1	978.3	969.9	961.6	953.2
x2 = 0.4978	980.4	972.3	960.2	951.9	943.5	935.2
x2 = 0.5436	969.2	961.1	948.8	940.4	932.1	923.8
x2 = 0.6116	952.8	944.8	932.1	923.9	915.6	907.3
x2 = 0.6984	932.5	924.4	911.4	903.1	894.9	886.8
x2 = 0.7452	921.6	913.6	900.4	892.2	884	875.9
x2 = 0.7944	910.4	902.3	888.9	880.8	872.7	864.6
x2 = 0.8541	897	889	875.4	867.2	859.1	851
x2 = 0.8932	888.3	880.2	866.5	858.4	850.3	842.2
x2 = 0.9423	877.5	869.5	855.6	847.5	839.4	831.3
x2 = 0.9833	868.7	860.6	846.5	838.5	830.4	822.3
